In patent US20250263391A1, “CRYSTALLINE FORM OF TEGAVIVINT, METHOD OF PREPARATION, AND USE THEREOF” (Iterion Therapeutics, Inc., priority 2020, published 2025):
Entries after “also recorded” stand apart in the source; their conditions may differ.

Assays:
Format in all cases: physicochemical
[1] = Ball milling of Form I and Form IV: form stability by XRPD; conditions: for Form: ball milling in 1% Poloxamer 188 water solution (50 mg/mL)
Procedure: (§1) Therefore, ball milling of Form I and Form IV was performed to evaluate the form stability and particle size growth. The detailed procedure of ball milling was as follows. • 1. Suspend Form I and Form IV sample in 1% Poloxamer 188 water solution (50 mg/mL), separately. • 2. Add ˜12 mL suspension into a 50-mL tube which contained milling beads (the volume of milling beads is around 30 mL). After 12 mL suspension was added, the liquid surface just covered the beads. • 3. Roll the 50-mL tube (containing beads and suspension) at 5° C., RT and 60° C. with 30 rpm. • 4. Sample ˜0.8 mL suspension at 1, 2, 4, 24 h using 1-mL syringe. • 5. Test XRPD, PSD and PLM for the suspension.
For XRPD analysis, PANalytical X'Pert^3 X-ray powder diffractometer was used.

[2] = Ball milling of Form I and Form IV: particle size (PSD)
Procedure: as §1

[3] = Slurry competition of Form I, III, IV and V at high water activity at RT (XRPD of wet cake); conditions: mixture of Form I
Procedure: The detailed procedure was as follows: • 1) Prepare saturated solution with Form I sample (803759-01-A) in three solvent systems. • 2) Add about 10 mg of each form into 1 mL corresponding saturated solution. • 3) Slurry and check the XRPD of the wet cake after one day and six days.

[4] = Storage of milled Form I aqueous suspension; conditions: milled to a very small particle size
Procedure: as §1

[5] = VT-XRPD of Form IV and exposure to ambient conditions
Procedure: 2) After heating to 75 and 120° C., pure Form VI was observed. […] Thus, Form IV is believed to be a hydrate. For XRPD analysis, PANalytical X'Pert^3 X-ray powder diffractometer was used.

[6] = Ball milling of Form I and Form IV: aggregation (PLM); conditions: after 24 h
Procedure: as §1
PLM images were captured using Axio Scope A1 microscope from Carl Zeiss German.

[7] = Dynamic Vapor Sorption (DVS); conditions: 25° C./80% RH
Procedure: DVS was measured via a SMS (Surface Measurement Systems) DVS Intrinsic. The relative humidity at 25° C. were calibrated against deliquescence point of LiCl, Mg(NO3)2 and KCl.

[8] = Form III samples after drying (XRPD)

SMILES: CC1CC(C)CN(S(=O)(=O)c2ccc3c(c2)C(=NO)c2cc(S(=O)(=O)N4CC(C)CC(C)C4)ccc2C3=NO)C1 (stereo not shown) [Form I, (9E,10E)-2,7-bis((3,5-dimethylpiperidin-1-yl)sulfonyl)anthracene-9,10-dione dioxime]
- Form ([1]; 5° C., 1 h, listed as Form 1): Form I
- Form ([1]; 5° C., 2 h, listed as Form 1): Form I
- Form ([1]; 5° C., 4 h, listed as Form 1): Form I
- Form ([1]; 5° C., 24 h, listed as Form 1): Form I
- Form ([1]; 60° C., 1 h, listed as Form 1): Form I
- Form ([1]; 60° C., 2 h, listed as Form 1): Form I
- Form ([1]; 60° C., 4 h): Form I
- Form ([1]; 60° C., 24 h): Form I
- Form ([1]; RT, 1 h, listed as Form 1): Form I
- Form ([1]; RT, 2 h, listed as Form 1): Form I
- Form ([1]; RT, 4 h, listed as Form 1): Form I
- Form ([1]; RT, 24 h, listed as Form 1): Form I
- D 90 ([2]; 5° C., 1 h, listed as Form 1): 9.4 μm
- D 90 ([2]; 5° C., 2 h, listed as Form 1): 9.0 μm
- D 90 ([2]; 5° C., 4 h, listed as Form 1): 5.2 μm
- D 90 ([2]; 5° C., 24 h, listed as Form 1): 5.6 μm
- D 90 ([2]; 60° C., 1 h, listed as Form 1): 22.6 μm
- D 90 ([2]; 60° C., 2 h, listed as Form 1): 6.6 μm
- D 90 ([2]; 60° C., 4 h, listed as Form 1): 5.3 μm
- D 90 ([2]; 60° C., 24 h, listed as Form 1): 2.0 μm
- D 90 ([2]; RT, 1 h, listed as Form 1): 22.4 μm
- D 90 ([2]; RT, 2 h, listed as Form 1): 21.4 μm
- D 90 ([2]; RT, 4 h, listed as Form 1): 14.2 μm
- D 90 ([2]; RT, 24 h, listed as Form 1): 2.8 μm
- Form obtained from slurry competition ([3]; IV and V slurried in ACN/H2O (1:1, v/v) at RT): New form
- Form obtained from slurry competition ([3]; IV and V slurried in ACN/H2O (1:3, v/v) at RT): Form I
- Form obtained from slurry competition ([3]; IV and V slurried in H2O at RT, XRPD after one day and six days): Form IV
- Form conversion during storage [4]: started converting to Form IV
- Particle size growth during storage [4]: unacceptable particle size growth

SMILES: CC1CC(C)CN(S(=O)(=O)c2ccc3c(c2)C(=NO)c2cc(S(=O)(=O)N4CC(C)CC(C)C4)ccc2C3=NO)C1 (stereo not shown) [Form VI, (9E,10E)-2,7-bis((3,5-dimethylpiperidin-1-yl)sulfonyl)anthracene-9,10-dione dioxime]
- Form conversion ([5]; after exposure to ambient condition): converted to Form IV quickly

SMILES: CC1CC(C)CN(S(=O)(=O)c2ccc3c(c2)C(=NO)c2cc(S(=O)(=O)N4CC(C)CC(C)C4)ccc2C3=NO)C1 (stereo not shown) [Form IV, (9E,10E)-2,7-bis((3,5-dimethylpiperidin-1-yl)sulfonyl)anthracene-9,10-dione dioxime]
- Aggregation ([6]; 5° C.): Aggregation was observed
- Aggregation ([6]; RT): Aggregation was observed
- Form ([1]; 5° C., 1 h): Form IV
- Form ([1]; 5° C., 2 h): Form IV
- Form ([1]; 5° C., 4 h): Form IV
- Form ([1]; 5° C., 24 h): Form IV
- Form ([1]; 60° C., 1 h): Form IV
- Form ([1]; 60° C., 2 h): form conversion was observed; also recorded: Form I + IV
- Form ([1]; RT, 1 h): Form IV
- Form ([1]; RT, 2 h): Form IV
- Form ([1]; RT, 4 h): Form IV
- Form ([1]; RT, 24 h): form conversion was observed; also recorded: Amorphous
- Form conversion on ball milling ([1]; milled at elevated temperature (60° C.), time not stated): conversion to Form I; also recorded: converted to Form I
- water uptake [7]: 9.1%
- D 90 ([2]; 5° C., 1 h): 33.7 μm
- D 90 ([2]; 5° C., 2 h): 17.4 μm
- D 90 ([2]; 5° C., 4 h): 5.8 μm
- D 90 ([2]; 5° C., 24 h): 9.8 μm
- D 90 ([2]; 60° C., 1 h): 3.9 μm
- D 90 ([2]; 60° C., 2 h): 4.0 μm
- D 90 ([2]; 60° C., 4 h): 2.0 μm
- D 90 ([2]; 60° C., 24 h): 0.6 μm
- D 90 ([2]; RT, 1 h): 6.6 μm
- D 90 ([2]; RT, 2 h): 4.0 μm
- D 90 ([2]; RT, 4 h): 3.4 μm
- D 90 ([2]; RT, 24 h): 5.8 μm
- Form by VT-XRPD ([5]; after cooling to 30° C.): Form VI was still observed
- Form by VT-XRPD ([5]; after heating to 75 and 120° C.): pure Form VI
- Form by VT-XRPD ([5]; at 30° C. under N2): partially converted to a new form

SMILES: CC1CC(C)CN(S(=O)(=O)c2ccc3c(c2)C(=NO)c2cc(S(=O)(=O)N4CC(C)CC(C)C4)ccc2C3=NO)C1 (stereo not shown) [Form III, (9E,10E)-2,7-bis((3,5-dimethylpiperidin-1-yl)sulfonyl)anthracene-9,10-dione dioxime]
- Form conversion ([8]; after exposure to ambient condition at RT): Form V
- Form conversion ([8]; after vacuum drying at RT): converted to Form IV
